pKd: −log10 of the molar value.
Key:
RPMI-8226 cells = experiment: Development of resistance to bortezomib in RPMI-8226 cells; type: cell-based; details: bortezomib 0.2-0.4 ng/ml, plus 0.75 μmol/L inhibitor
Experimental: The cell line RPMI-8226 (DMSZ 402) is a “multiple myeloma” cell line and was chosen because bortezomib is employed as a standard therapy for multiple myeloma. RPMI-8226 cells respond to bortezomib, express HSP27 and develop resistance to Velcade. RPMI-8226 cells were seeded at a cell count of 100,000 cells/ml in each case and regularly passaged. […] In contrast, for RPMI 8226 cells that were treated with 30 μmol/L BVDU, a final cell count of 160,000 cells/ml was detected whereas the final cell count for the culture without the addition of an HSP27 inhibitor amounted to 350,000 cells/ml. As a control, RPMI 8226 cells were treated with the respective test substances alone, FIG. 4b.

HSP27 [1] = biological target: T1, HSP27 (Homo sapiens, UniProt P04792); experiment: Bio-layer interferometry (ForteBio Octet Red 384, biotinylated HSP27 on SSA sensors); type: binding; details: bio-layer interferometry; read-out: KD
T1 sequence (P04792 whole entry): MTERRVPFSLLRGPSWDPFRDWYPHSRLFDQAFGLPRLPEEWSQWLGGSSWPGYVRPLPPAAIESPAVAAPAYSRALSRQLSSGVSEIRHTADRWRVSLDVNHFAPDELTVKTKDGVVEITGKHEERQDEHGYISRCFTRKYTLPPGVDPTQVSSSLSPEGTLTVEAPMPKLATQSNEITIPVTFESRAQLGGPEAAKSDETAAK
Source text: Bio-layer interferometry is a technique for detecting biomolecular interactions. It is an analytical technique that measures the optical interference of white light which is reflected by two surfaces: in each case, one surface consists of a layer of the immobilized target protein on the tip of the biosensor and one is an internal reference surface. The binding of ligands to the target protein alters the interference pattern and can be measured in real time.
For the measurements, an instrument of the ForteBio Octet Red 384 brand was used. The target protein HSP27 was biotinylated and bound to the appropriate sensors (SSA). […] The purine derivatives of general formula (I) or (II) pre-identified by means of in silico screening are employed for these measurements in a concentration range (KD) of between 333 μmol/L and 10 nmol/L.
For measurements by bio-layer interferometry, biotinylated HSP27 protein was first bound to Super-Streptavidin sensors (SSA, Fortebio). The loaded sensors were then incubated (“quenched”) with biocytin. As reference, unloaded SSA sensors were incubated with biocytin. In the case of a specific binding to HSP27 of the analyte to be measured, the loaded HSP27 sensor generates a stronger signal (response) than the concurrent reference sensor. After the “baseline” has been established by incubation with the reaction buffer (PBST 0.1% Tween 20 plus 3% DMSO), first the association and then the dissociation of the respective analyte is measured in real time. The analytes were measured in increasing concentrations in each case: 1.23-3.7-11.11-33.33-100-300 μM/l.

HSP27 [2] = biological target: T1, HSP27; experiment: Capillary electrophoresis of the CS protein precipitates (precipitated citrate synthase as measure of HSP27 inhibition); type: biochemical; details: 10 μmol/L; 43° C. for 120 minutes; 750 μmol/L BVDU set at 1
Experimental: Since the heat-denatured protein aggregates of the citrate synthase from Example 1 are not water-soluble, these can be separated completely from the supernatant by means of centrifugation at room temperature at 16,000×g, 10 min. By using capillary electrophoresis, the compositions of the separated precipitates can be shown and quantified. The relative quantity of protein of precipitated citrate synthase serves as a measure of the efficacy of the test substances.
In each case, 481 nmol/L HSP27 and 1.44 μmol/L citrate synthase in 40 mmol/L HEPES buffer, pH 7.4, were employed. The relative quantity of protein of the precipitated citrate synthase in each case was normalized using a defined quantity of BSA as internal standard. The relative quantity of protein that precipitated when using 750 μmol/L BVDU was set at 1. The other test substances (2 representatives of phenothiazine derivatives of general formula (V), 2 representatives of purine derivatives of formula (I) or (II)) were each employed at a concentration of 10 μmol/L.
Since the heat-denatured protein aggregates of the citrate synthase from Example 2 are not water-soluble, these can be separated completely from the supernatant by means of centrifugation at room temperature at 16,000×g, 10 min. By using capillary electrophoresis, the compositions of the separated precipitates can be shown and quantified. The relative quantity of protein of precipitated citrate synthase serves as a measure of the efficacy of the test substances.
In each case, 481 nM HSP27 and 1.44 μmol/L citrate synthase in 40 mmol/L HEPES buffer, pH 7.4, were employed. The relative quantity of protein of the precipitated citrate synthase in each case was normalized using a defined quantity of BSA as internal standard. The relative quantity of protein that precipitated when using 750 μmol/L BVDU was set at 1. The other test substances (2 representatives of phenothiazine derivatives of general formula (V), 2 representatives of thymine derivatives of formula (I) or (II)) were employed at a concentration of 10 μmol/L in each case.
Otherwise, the experiments were performed as described above: […]

HSP27 [3] = biological target: T1, HSP27; experiment: SpeedScreen gel filtration binding test (Sephadex G-25, detection by mass spectroscopy)
Source text: For the experimental validation of low-molecular-weight compounds which act as potential HSP27 inhibitors according to the in silico prediction, a method based on gel filtration was employed. The method for detecting molecular bonds using gel filtration was described in 2004 as “SpeedScreen” [Muckenschnabel et al., 2004] and was adapted to meet the requirements of the invention. […] For the separation, PD SpinTraps G-25 from GE Healthcare were used. During the 2-minute centrifugation at 800×g (according to operating instructions), these columns allow molecules with a molecular weight of greater than or equal to 5000 g/mol to pass through, while smaller molecules are retained in the matrix. The target protein HSP27 has a molecular weight of 27000 g/mol and therefore passes through the matrix. […] Non-bound low-molecular-weight compounds are retained by the matrix. Molecules that have passed through the matrix can then be detected by mass spectroscopy. This enables “binders” to be differentiated from “non-binders”. For the experimental validation of low-molecular-weight compounds which act as potential HSP27 inhibitors according to the in silico prediction, a method based on gel filtration was employed. […] Molecules that have passed through the matrix can then be detected by mass spectroscopy. […]

Question: What does the source list for CC(=O)c1ccc2c(c1)N(CCCN(C)C)c1ccccc1S2 [Acepromazine]?
Answer: development of resistance to bortezomib (RPMI-8226 cells): significantly inhibited; pKd (HSP27 [1]): 4.14; Rel. quantity of protein prec. CS (HSP27 [2]): 0.99; Binding to HSP27 by SpeedScreen (passage through the Sephadex G-25 matrix) (HSP27 [3]): tested positively
